This assay has as its target T1, NCC69 (HA:NCC69) (Drosophila melanogaster, UniProt Q9VTW8).
T1 sequence (Q9VTW8 1-1171): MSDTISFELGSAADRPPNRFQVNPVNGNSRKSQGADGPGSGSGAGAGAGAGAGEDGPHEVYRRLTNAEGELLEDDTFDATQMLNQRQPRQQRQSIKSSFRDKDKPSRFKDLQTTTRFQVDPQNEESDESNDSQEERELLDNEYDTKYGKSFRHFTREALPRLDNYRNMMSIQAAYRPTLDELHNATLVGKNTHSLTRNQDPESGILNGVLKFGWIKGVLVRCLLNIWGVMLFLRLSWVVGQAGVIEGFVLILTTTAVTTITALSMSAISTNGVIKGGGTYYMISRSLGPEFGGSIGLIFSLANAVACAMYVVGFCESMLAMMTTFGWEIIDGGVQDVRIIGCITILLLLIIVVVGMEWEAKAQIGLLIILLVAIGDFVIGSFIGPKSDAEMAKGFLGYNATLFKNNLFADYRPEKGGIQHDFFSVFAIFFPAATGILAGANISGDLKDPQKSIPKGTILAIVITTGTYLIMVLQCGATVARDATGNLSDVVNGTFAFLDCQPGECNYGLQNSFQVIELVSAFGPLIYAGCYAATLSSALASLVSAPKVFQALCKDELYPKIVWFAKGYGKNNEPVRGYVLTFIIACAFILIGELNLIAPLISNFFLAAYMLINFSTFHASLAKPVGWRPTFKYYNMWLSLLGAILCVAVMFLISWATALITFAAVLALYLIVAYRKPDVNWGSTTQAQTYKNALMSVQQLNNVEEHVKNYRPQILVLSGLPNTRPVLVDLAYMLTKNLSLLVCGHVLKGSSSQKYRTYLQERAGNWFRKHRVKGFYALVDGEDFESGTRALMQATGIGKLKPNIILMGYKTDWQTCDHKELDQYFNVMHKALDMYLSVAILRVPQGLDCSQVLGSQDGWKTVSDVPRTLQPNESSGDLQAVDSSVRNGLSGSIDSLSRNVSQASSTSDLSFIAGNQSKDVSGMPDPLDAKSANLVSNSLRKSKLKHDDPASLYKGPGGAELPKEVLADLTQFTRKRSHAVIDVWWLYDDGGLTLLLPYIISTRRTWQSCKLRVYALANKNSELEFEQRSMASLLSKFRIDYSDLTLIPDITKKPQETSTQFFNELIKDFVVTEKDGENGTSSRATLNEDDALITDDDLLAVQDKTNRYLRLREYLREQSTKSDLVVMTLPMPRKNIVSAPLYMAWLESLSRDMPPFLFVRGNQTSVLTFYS
The assay can be described thus: […] influx inhibition in stably transfected SL2 cells. The class given is cell-based.

The structures appear in SMILES notation.

Compound `CCCCNc1cc(C(=O)O)cc(S(N)(=O)=O)c1Oc1ccccc1` [bumetanide] returned a Ki of 0.049 µM.

The values are drawn from article PMC3005002 (Glia, 2011).
